Measurements from patent US20150031572A1, “MEANS AND METHODS FOR ASSESSING NEURONAL TOXICITY” (priority 2012, published 2015).
Where a name gives a salt, the structure may show the parent alone. Marks after values point to notes of the source that are not given here.

Assay: Plasma metabolite profiling (GC-MS, LC-MS, SPE-LC-MS) of rats dosed once daily over 28 days; treatment ratios versus untreated control
Format: in vivo, rat
Details: for 5-Oxoproline, plasma metabolite ratio versus control / Alanine, plasma metabolite ratio versus control / Arginine (second line of the table), plasma metabolite ratio versus control / Arginine, plasma metabolite ratio versus control / Citrulline, plasma metabolite ratio versus control / Glutamine, plasma metabolite ratio versus control / Proline, plasma metabolite ratio versus control / Tyrosine, plasma metabolite ratio versus control / Creatinine, ratio versus control: male rats; for 5-Oxoproline, plasma metabolite ratio versus control / Alanine, plasma metabolite ratio versus control / Arginine (second line of the table), plasma metabolite ratio versus control / Arginine, plasma metabolite ratio versus control / Citrulline, plasma metabolite ratio versus control / Glutamine, plasma metabolite ratio versus control / Proline, plasma metabolite ratio versus control / Tyrosine, plasma metabolite ratio versus control: high dose; for Creatinine, ratio versus control: Table 12a
Experimental: A group of each 5 male and female rats was dosed once daily with the indicated compounds (see Table 10, below for compounds, applied doses and administration details) over 28 days.
Each dose group in the studies consisted of five rats per sex. Additional groups of each 5 male and female animals served as controls. Before starting the treatment period, animals, which were 62-64 days old when supplied, were acclimatized to the housing and environmental conditions for 7 days. All animals of the animal population were kept under the same constant temperature (20-24±3° C.) and the same constant humidity (30-70%). The animals of the animal population were fed ad libitum. The food to be used was essentially free of chemical or microbial contaminants. Drinking water was also offered ad libitum. Accordingly, the water was free of chemical and microbial contaminants as laid down in the European Drinking Water Directive 98/83/EG. The illumination period was 12 hours light followed by 12 hours darkness (12 hours light, from 6:00 to 18:00, and 12 hours darkness, from 18:00 to 6:00). […] The test substances (compounds) in the Tables 1 to 9 below were dosed and administered as described in the Table 10 above.
In the morning of day 7, 14, and 28, blood was taken from the retro-orbital venous plexus from fasted anaesthetized animals. From each animal, 1 ml of blood was collected with EDTA as anticoagulant. The samples were centrifuged for generation of plasma. All plasma samples were covered with a N2 atmosphere and then stored at −80° C. until analysis.
For mass spectrometry-based metabolite profiling analyses plasma samples were extracted and a polar and a non-polar (lipid) fraction was obtained. For GC-MS analysis, the non-polar fraction was treated with methanol under acidic conditions to yield the fatty acid methyl esters. Both fractions were further derivatised with O-methyl-hydroxyamine hydrochloride and pyridine to convert Oxogroups to O-methyloximes and subsequently with a silylating agent before analysis. In LC-MS analysis, both fractions were reconstituted in appropriate solvent mixtures. HPLC was performed by gradient elution on reversed phase separation columns. Mass spectrometric detection which allows target and high sensitivity MRM (Multiple Reaction Monitoring) profiling in parallel to a full screen analysis was applied as described in WO2003073464.
Steroids and their metabolites were measured by online SPE-LC-MS (Solid phase extraction-LC-MS).
Following comprehensive analytical validation steps, the data for each analyte were normalized against data from pool samples. These samples were run in parallel through the whole process to account for process variability. The significance of treatment group values specific for sex, treatment duration and metabolite was determined by comparing means of the treated groups to the means of the respective untreated control groups using WELCH-test and quantified with treatment ratios versus control and p-values.
The identification of the most important biomarkers per toxicity pattern was done by a ranking of the analytes in the tables below. Therefore the metabolic changes in reference treatments of a given pattern (shown in the table) were compared with changes of the same metabolite in other unrelated treatments. […] The maximum absolute value of the respective TVALUE was taken to indicate the most important metabolite for the pattern.

[1] = plasma, female rats, day 28, high dose, Table 6a
[2] = plasma, female rats, day 28, high dose, Table 6b
[3] = plasma, female rats, day 28, high dose, Table 8c
[4] = plasma, female rats, day 28, high dose, Table 8d

Compound: CC1(C)C(C(Cl)Cl)C2(Cl)C(Cl)C(Cl)C1(Cl)C2(Cl)Cl (stereo not drawn) [Toxaphene]
- 5-Oxoproline, plasma metabolite ratio versus control (day 7 (m7)): 0.98
- Alanine, plasma metabolite ratio versus control (day 7 (m7)): 0.82
- Arginine (second line of the table), plasma metabolite ratio versus control (day 7 (m7)): 0.87
- Arginine, plasma metabolite ratio versus control (day 7 (m7)): 0.96
- Citrulline, plasma metabolite ratio versus control (day 7 (m7)): 0.87
- Glutamine, plasma metabolite ratio versus control (day 7 (m7)): 0.89
- Proline, plasma metabolite ratio versus control (day 7 (m7)): 0.82
- Tyrosine, plasma metabolite ratio versus control (day 7 (m7)): 0.86
- 5-Oxoproline, plasma metabolite ratio versus control (day 14 (m14)): 0.87
- Alanine, plasma metabolite ratio versus control (day 14 (m14)): 0.87
- Arginine (second line of the table), plasma metabolite ratio versus control (day 14 (m14)): 0.79
- Arginine, plasma metabolite ratio versus control (day 14 (m14)): 0.78
- Citrulline, plasma metabolite ratio versus control (day 14 (m14)): 1.07
- Glutamine, plasma metabolite ratio versus control (day 14 (m14)): 0.77
- Proline, plasma metabolite ratio versus control (day 14 (m14)): 0.86
- Tyrosine, plasma metabolite ratio versus control (day 14 (m14)): 0.87
- 5-Oxoproline, plasma metabolite ratio versus control (day 28 (m28)): 0.81
- Alanine, plasma metabolite ratio versus control (day 28 (m28)): 0.83
- Arginine (second line of the table), plasma metabolite ratio versus control (day 28 (m28)): 0.84
- Arginine, plasma metabolite ratio versus control (day 28 (m28)): 0.77
- Citrulline, plasma metabolite ratio versus control (day 28 (m28)): 1.10
- Glutamine, plasma metabolite ratio versus control (day 28 (m28)): 0.81
- Proline, plasma metabolite ratio versus control (day 28 (m28)): 0.88
- Tyrosine, plasma metabolite ratio versus control (day 28 (m28)): 0.79
- Creatinine, ratio versus control (plasma, day 7, high dose): 1.41
- Creatinine, ratio versus control (plasma, day 14, high dose): 1.45
- Creatinine, ratio versus control (plasma, day 28, high dose): 1.37

Compound: C=CCN1C[C@H](C(=O)N(CCCN(C)C)C(=O)NCC)C[C@@H]2c3cccc4[nH]cc(c34)C[C@H]21 [Cabergoline]
- Isoleucine, ratio versus control [1]: 1.14*
- 4-Hydroxy-3-methoxyphenylglycol (HMPG), ratio versus control [2]: 0.79*
- 14-Methylhexadecanoic acid, ratio versus control [2]: 0.74*
- 16-Methylheptadecanoic acid, ratio versus control [2]: 0.28*
- 17-Methyloctadecanoic acid, ratio versus control [2]: 0.3*
- Ceramide (d18:1,C24:1), ratio versus control [2]: 0.39*
- Choline plasmalogen No 03, ratio versus control [2]: 0.39*
- Homovanillic acid (HVA), ratio versus control [2]: 0.41*
- Isopalmitic acid (C16:0), ratio versus control [2]: 0.36*
- Lactate, ratio versus control [2]: 0.7*
- Myristic acid (C14:0), ratio versus control [2]: 0.33*
- Phosphatidylcholine (C16:0, C20:4), ratio versus control [2]: 0.97
- Phosphatidylcholine No 04, ratio versus control [2]: 0.34*
- Pyruvate, ratio versus control [2]: 0.93
- 3-Methoxytyrosine, ratio versus control (rat, in vivo): 1.24*

Compound: CC(C)C[C@H]1C(=O)N2CCC[C@H]2[C@]2(O)O[C@](NC(=O)[C@@H]3C=C4c5cccc6[nH]c(Br)c(c56)C[C@H]4N(C)C3)(C(C)C)C(=O)N12 [Bromocriptine Mesylate]
- Isoleucine, ratio versus control [1]: 1.14*
- 14-Methylhexadecanoic acid, ratio versus control [2]: 0.85*
- 16-Methylheptadecanoic acid, ratio versus control [2]: 0.51*
- 17-Methyloctadecanoic acid, ratio versus control [2]: 0.67*
- Ceramide (d18:1,C24:1), ratio versus control [2]: 0.6*
- Choline plasmalogen No 03, ratio versus control [2]: 0.62*
- Isopalmitic acid (C16:0), ratio versus control [2]: 0.62*
- Lactate, ratio versus control [2]: 0.47*
- Myristic acid (C14:0), ratio versus control [2]: 0.84
- Phosphatidylcholine (C16:0, C20:4), ratio versus control [2]: 0.94*
- Phosphatidylcholine No 04, ratio versus control [2]: 0.47*
- Pyruvate, ratio versus control [2]: 0.71*
- 3-Hydroxybutyrate, ratio versus control [3]: 1.13^
- Isoleucine, ratio versus control [3]: 1.14 *
- TAG (C16:0,C18:2), ratio versus control [3]: 1.2 *
- 16-Methylheptadecanoic acid, ratio versus control [4]: 0.51 *
- 17-Methyloctadecanoic acid, ratio versus control [4]: 0.67 *
- Ceramide (d18:1,C24:1), ratio versus control [4]: 0.6 *
- Phosphatidylcholine (C16:0, C20:4), ratio versus control [4]: 0.94 *
- Phosphatidylcholine (C18:0, C20:3), ratio versus control [4]: 0.71 *
- Pyruvate, ratio versus control [4]: 0.71 *

Compound: Lead acetate trihydrate
- 5-Oxoproline, plasma metabolite ratio versus control (day 7 (m7)): 0.88
- Alanine, plasma metabolite ratio versus control (day 7 (m7)): 0.68
- Arginine (second line of the table), plasma metabolite ratio versus control (day 7 (m7)): 0.91
- Arginine, plasma metabolite ratio versus control (day 7 (m7)): 0.86
- Citrulline, plasma metabolite ratio versus control (day 7 (m7)): 0.94
- Glutamine, plasma metabolite ratio versus control (day 7 (m7)): 0.83
- Proline, plasma metabolite ratio versus control (day 7 (m7)): 0.88
- Tyrosine, plasma metabolite ratio versus control (day 7 (m7)): 0.92
- 5-Oxoproline, plasma metabolite ratio versus control (day 14 (m14)): 0.92
- Alanine, plasma metabolite ratio versus control (day 14 (m14)): 0.75
- Arginine (second line of the table), plasma metabolite ratio versus control (day 14 (m14)): 0.90
- Arginine, plasma metabolite ratio versus control (day 14 (m14)): 0.87
- Citrulline, plasma metabolite ratio versus control (day 14 (m14)): 0.90
- Glutamine, plasma metabolite ratio versus control (day 14 (m14)): 0.83
- Proline, plasma metabolite ratio versus control (day 14 (m14)): 0.84
- Tyrosine, plasma metabolite ratio versus control (day 14 (m14)): 0.88
- 5-Oxoproline, plasma metabolite ratio versus control (day 28 (m28)): 0.86
- Alanine, plasma metabolite ratio versus control (day 28 (m28)): 0.75
- Arginine (second line of the table), plasma metabolite ratio versus control (day 28 (m28)): 0.89
- Arginine, plasma metabolite ratio versus control (day 28 (m28)): 0.90
- Citrulline, plasma metabolite ratio versus control (day 28 (m28)): 0.91
- Glutamine, plasma metabolite ratio versus control (day 28 (m28)): 0.87
- Proline, plasma metabolite ratio versus control (day 28 (m28)): 0.88
- Tyrosine, plasma metabolite ratio versus control (day 28 (m28)): 0.90
- Creatinine, ratio versus control (plasma, day 7, high dose): 1.16
- Creatinine, ratio versus control (plasma, day 14, high dose): 1.32
- Creatinine, ratio versus control (plasma, day 28, high dose): 1.66
